From PubChem BioAssay AID1053171 (The Scripps Research Institute Molecular Screening Center, 2014)
Active and inactive are the calls of the source. No rule for the calls is given here.

These compounds were tested against HIV-1 integrase (multimerization) (assay: HIV-1 integrase multimerization activators, dose response, counter-screen for LEDGF/p75 integration inhibitor project, biochemical, TR-FRET (AID 1053171)).

| SMILES | IC50 |
| --- | --- |
| CN(C)c1ccc(O)c2c1CC1CC3[C@@H](N(C)C)C(=O)C(C(N)=O)=C(O)[C@]3(O)C(=O)C1=C2O (some centres undefined) | 2.53 µM |
| O=c1c(O)c(-c2ccc(O)c(O)c2)oc2cc(O)ccc12 | 1.45 µM |
| CN(C)[C@@H]1C(=O)C(C(N)=O)=C(O)[C@@]2(O)C(=O)C3=C(O)c4c(O)cccc4[C@@](C)(O)C3[C@H](O)C12 (some centres undefined) | inactive |
| O=C1/C(=C\c2ccc(O)c(O)c2)C(c2ccccc2)=NN1c1ccccc1 | 8.68 µM |
| O=[N+]([O-])c1ccccc1NC(=S)N/N=C/c1ccc(O)c(O)c1 | inactive |
| O=c1cc2c(=O)oc3cc(O)c(O)oc3c2c(O)c1O | 0.354 µM |
| O=C1NC(=Nc2ccc(O)cc2)S/C1=C\C=C\c1ccco1 | inactive |
| O=[N+]([O-])c1cc(Br)c(O)c(C=Nc2ccc(N3CCOCC3)cc2)c1 | > 53.8 µM (inactive) |
| O=C1C=C(O)c2[nH]c(=O)ccc2C1=O | 7.38 µM |
| C=C1c2cccc(O)c2C(O)=C2C(=O)[C@]3(O)C(O)=C(C(N)=O)C(=O)[C@@H](N(C)C)[C@@H]3[C@@H](O)[C@H]12 | 8.53 µM |
| NS(=O)(=O)c1ccc(N/N=C/c2ccc(O)c(O)c2O)c([N+](=O)[O-])c1 | 3.4 µM |
| O=C1C=C(O)c2c(O)cc(O)c(O)c2C1=O | 0.085 µM |
| CN(C)C1C(=O)C(C(N)=O)=C(O)C2(O)C(=O)C3=C(O)c4c(O)cccc4C(C)(O)C3C(O)C12 (centres undefined) | inactive |
| O=C1c2cc(O)c(O)cc2OC(c2ccc(O)c(O)c2)C1O (centres undefined) | inactive |
| O=C1CCCC(O)=C1N=Nc1ccc(C(=O)O)cc1 | 2.72 µM |
| O=C1C=C(Nc2ccccc2O)c2ccccc2C1=O | inactive |
| NC(=O)c1ccc(N=Cc2c(O)n(Cc3ccco3)c(=O)[nH]c2=O)cc1 | > 53.7 µM (inactive) |
| Cc1c(CC(=O)N2CCN(C(=O)C3COc4ccccc4O3)CC2)c(=O)oc2c(O)c(O)ccc12 (centres undefined) | > 53.7 µM (inactive) |
| C[n+]1c2cc(N)ccc2cc2ccc(N)cc21 | > 17.9 µM (inactive) |
| Cc1cc(C(=O)N/N=C/c2ccc(O)c([N+](=O)[O-])c2)c(C)n1-c1ccc(F)cc1 | inactive |
| CC1=NN(c2cccc(C(=O)O)c2)C(=O)/C1=C\C=C\c1ccco1 | 1.41 µM |
| COc1cc(C)cc(C(=O)O)c1C1=C(O)c2cccc(O)c2C(=O)C1=O | inactive |
| O=c1c(O)c(-c2ccc(O)c(O)c2)oc2cc(O)cc(O)c12 | 5.34 µM |
| N/C(=N\N=C/c1ccc(-c2ccc(O)c(C(=O)O)c2)o1)N[N+](=O)[O-] | 4.54 µM |
